Measurements taken from patent US20050026968A1, “Heterocyclic amides with anti-tuberculosis activity” (priority 2003, published 2005).
In brackets after ≈: the same amount, converted by molar mass.

tested on: M. tuberculosis H37Ra; test: MIC against M. tuberculosis H37Ra, micro broth dilution in microtiter plates; conditions: not given

With `CN(C(=O)c1ccc([N+](=O)[O-])o1)c1ccccc1` [Compound 41] the MIC was 3.1 mg/L (≈ 12.6 µM).

With `COc1ccc(NC(=O)c2ccc([N+](=O)[O-])o2)cc1Cl` [Compound 1] the “MIC against whole cells” value was 1.6 mg/L (≈ 5.39 µM).

same assay, conditions: Mycobacterium tuberculosis, H37RA

With `NNC(=O)c1ccncc1` [Isoniazid, isoniazid, reference compound] the MIC90 was 0.05 mg/L (≈ 0.365 µM).

same assay, conditions: Mycobacterium tuberculosis, H37RA, 168 h, read-out: TB MIC, Table 1; M. tuberculosis H37Ra, 7 days, MIC90 (>90% inhibition of growth)

Going from `O=C(Nc1cccc(O)c1)c1ccc([N+](=O)[O-])o1` [Compound 35, 5-Nitro-furan-2-carboxylic acid(3-hydroxy-phenyl)-amide] to `O=C(Nc1ccccc1)c1ccc([N+](=O)[O-])o1` [Compound 17, 5-Nitro-furan-2-carboxylic acid phenylamide], the MIC falls from 1.6 mg/L (≈ 6.45 µM) to 0.8 mg/L (≈ 3.45 µM) (2-fold).

First: COc1ccc(CNC(=O)c2ccc(Br)o2)cc1 [Compound 32, 5-Bromo-furan-2-carboxylic acid 4-methoxy-benzylamide]
Second: COc1ccc(CNC(=O)c2ccc([N+](=O)[O-])o2)cc1 [Compound 20, 5-Nitro-furan-2-carboxylic acid 4-methoxy-benzylamide]
The MIC of the first is 2000-fold higher: 200 mg/L (≈ 645 µM) for the first, 0.1 mg/L (≈ 0.362 µM) for the second.

First: O=C(Nc1cnccn1)c1ccc([N+](=O)[O-])o1 [Compound 48, 5-Nitro-furan-2-carboxylic acid pyrazin-2-ylamide]
Second: O=C(NCc1ccccc1Cl)c1ccc([N+](=O)[O-])o1 [Compound 21, 5-Nitro-furan-2-carboxylic acid 2-chloro-benzylamide]
The MIC of the first is 3.9-fold higher: 6.25 mg/L (≈ 26.7 µM) for the first, 1.6 mg/L (≈ 5.7 µM) for the second.

`O=C(NCCc1ccccc1)c1ccc([N+](=O)[O-])o1` [Compound 27, 5-Nitro-furan-2-carboxylic acid phenethyl-amide] and `COc1ccccc1CNC(=O)c1ccc([N+](=O)[O-])o1` [Compound 52, 5-nitro-furan-2-carboxylic acid 2-methoxy-benzylamide] are the same in MIC: 1.6 mg/L (≈ 6.15 µM) for the first, 1.6 mg/L (≈ 5.79 µM) for the second.

`O=C(NC12CC3CC(CC(C3)C1)C2)c1ccc([N+](=O)[O-])o1` [Compound 16, 5-Nitro-furan-2-carboxylic acid adamantan-1-ylamide] and `O=C(NC1CCCCC1)c1ccc([N+](=O)[O-])o1` [Compound 15, 5-Nitro-furan-2-carboxylic acid cyclohexylamide] are the same in MIC: 3.1 mg/L (≈ 10.7 µM) for the first, 3.1 mg/L (≈ 13 µM) for the second.

First: CCOC(=O)c1ccc(C(=O)Nc2cccc(OC)c2)o1 [Compound 40, 5-(3-Methoxy-phenylcarbamoyl)-furan-2-carboxylic acid ethyl ester]
Second: COc1cccc(NC(=O)c2ccc(S(=O)(=O)O)o2)c1 [Compound 34, 5-(3-Methoxy-phenylcarbamoyl)-furan-2-sulfonic acid]
The MIC of the first is 2-fold higher: 400 mg/L (≈ 1380 µM) for the first, 200 mg/L (≈ 673 µM) for the second.

First: COc1cc(CNC(=O)c2ccc([N+](=O)[O-])o2)cc(OC)c1OC [Compound 24, 5-Nitro-furan-2-carboxylic acid 3,4,5-trimethoxy-benzylamide]
Second: O=C(NC1CCc2ccccc21)c1ccc([N+](=O)[O-])o1 (stereo not shown) [Compound 26, 5-Nitro-furan-2-carboxylic acid indan-1-ylamide]
The MIC of the first is 3.9-fold lower: 0.8 mg/L (≈ 2.38 µM) for the first, 3.1 mg/L (≈ 11.4 µM) for the second.

With `COc1cccc(NC(=O)c2ccc(S(=O)(=O)c3ccccc3)o2)c1` [Compound 39, 5-Benzenesulfonyl-furan-2-carboxylic acid(3-methoxy-phenyl)-amide] the MIC was 6.25 mg/L (≈ 17.5 µM).

same assay, conditions: Mycobacterium tuberculosis, H37RA, Table 4; M. tuberculosis H37Ra, MIC90

Going from `O=C(NCc1cccc(N2CCN(Cc3ccccc3)CC2)c1)c1ccc([N+](=O)[O-])o1` [Compound 69, 5-Nitro-furan-2-carboxylic acid 3-(4-benzyl-piperazin-1-yl)-benzylamide] to `O=C(Nc1cccc(N2CCN(Cc3ccccc3)CC2)c1)c1ccc([N+](=O)[O-])o1` [Compound 61, 5-Nitro-furan-2-carboxylic acid[3-(4-benzyl-piperazin-1-yl)-phenyl]-amide], the MIC rises from < 0.1 mg/L to 12.5 mg/L (≈ 30.8 µM).

Compared with `O=C(NCc1ccc(N2CCOCC2)cc1)c1ccc([N+](=O)[O-])o1` [Compound 64, 5-Nitro-furan-2-carboxylic acid 4-morpholin-4-yl-benzylamide], `O=C(Nc1ccc(N2CCOCC2)cc1)c1ccc([N+](=O)[O-])o1` [Compound 54, 5-Nitro-furan-2-carboxylic acid(4-morpholin-4-yl-phenyl)-amide] is 16-fold higher in MIC: 0.1 mg/L (≈ 0.302 µM) for the first, 1.6 mg/L (≈ 5.04 µM) for the second.

First: O=C(Nc1cccc(N2CCN(c3ccccn3)CC2)c1)c1ccc([N+](=O)[O-])o1 [Compound 63, 5-Nitro-furan-2-carboxylic acid[3-(4-pyridin-2-yl-piperazin-1-yl)-phenyl]-amide]
Second: CN1CCN(c2cccc(NC(=O)c3ccc([N+](=O)[O-])o3)c2)CC1 [Compound 60, 5-Nitro-furan-2-carboxylic acid[3-(4-methyl-piperazin-1-yl)-phenyl]-amide]
The MIC of the first is 7.8-fold lower: 1.6 mg/L (≈ 4.07 µM) for the first, 12.5 mg/L (≈ 37.8 µM) for the second.

`O=C(NCc1cccc(N2CCC(Cc3ccccc3)CC2)c1)c1ccc([N+](=O)[O-])o1` [Compound 70, 5-Nitro-furan-2-carboxylic acid 3-(4-benzyl-piperidin-1-yl)-benzylamide] and `O=C(NCc1ccc(N2CCC(Cc3ccccc3)CC2)cc1)c1ccc([N+](=O)[O-])o1` [Compound 67, 5-Nitro-furan-2-carboxylic acid 4-(4-benzyl-piperidin-1-yl)-benzylamide] cannot be ordered by MIC: 0.0062 mg/L (≈ 0.0148 µM) for the first, < 0.1 mg/L for the second.

First: O=C(c1ccc([N+](=O)[O-])o1)N1Cc2ccccc2C1 [Compound 71]
Second: O=C(Nc1cccc(N2CCOCC2)c1)c1ccc([N+](=O)[O-])o1 [Compound 59, 5-Nitro-furan-2-carboxylic acid(3-morpholin-4-yl-phenyl)-amide]
The MIC of the first is 4-fold lower: 0.78 mg/L (≈ 3.02 µM) for the first, 3.1 mg/L (≈ 9.77 µM) for the second.

`O=C(Nc1ccc(N2CCN(Cc3ccccc3)CC2)cc1)c1ccc([N+](=O)[O-])o1` [Compound 56, 5-Nitro-furan-2-carboxylic acid[4-(4-benzyl-piperazin-1-yl)-phenyl]-amide] gave an MIC of 0.8 mg/L (≈ 1.97 µM).

same assay, conditions: Mycobacterium tuberculosis, H37RA, Table 5; M. tuberculosis H37Ra, MIC90

`O=C(c1ccc([N+](=O)[O-])o1)N1CCN(Cc2ccccc2)CC1` [Compound 73] and `O=C(c1ccc([N+](=O)[O-])o1)N1CCN(Cc2cccc(O)c2)CC1` [Compound 83] are within 1.5-fold of each other in MIC: 0.59 mg/L (≈ 1.87 µM) for the first, 0.8 mg/L (≈ 2.41 µM) for the second.

First: O=C(c1ccc([N+](=O)[O-])o1)N1CCN(C2CCCCC2)CC1 [Compound 80]
Second: O=C(c1ccc([N+](=O)[O-])o1)N1CCN(Cc2ccc(O)cc2)CC1 [Compound 84]
The MIC of the first is 4-fold higher: 6.25 mg/L (≈ 20.3 µM) for the first, 1.56 mg/L (≈ 4.71 µM) for the second.

Compared with `COc1cc2c(cc1OC)CN(C(=O)c1ccc([N+](=O)[O-])o1)CC2` [Compound 75], `COc1ccc(CN2CCN(C(=O)c3ccc([N+](=O)[O-])o3)CC2)c(OC)c1` [Compound 89] is lower in MIC: 0.15 mg/L (≈ 0.451 µM) for the first, < 0.1 mg/L for the second.

Compared with `COc1ccc(CN2CCN(C(=O)c3ccc([N+](=O)[O-])o3)CC2)cc1` [Compound 85], `COc1cccc(CN2CCN(C(=O)c3ccc([N+](=O)[O-])o3)CC2)c1` [Compound 86] is higher in MIC: < 0.1 mg/L for the first, 1.56 mg/L (≈ 4.52 µM) for the second.

`O=C(c1ccc([N+](=O)[O-])o1)N1CCC(O)(Cc2ccccc2)CC1` [Compound 79] and `COc1ccccc1N1CCN(C(=O)c2ccc([N+](=O)[O-])o2)CC1` [Compound 82] are the same in MIC: 1.56 mg/L (≈ 4.72 µM) for the first, 1.56 mg/L (≈ 4.71 µM) for the second.

Compared with `O=C(NCc1ccc2c(c1)OCO2)c1ccc([N+](=O)[O-])o1` [Compound 74], `CCN(CC)c1ccc(CN2CCN(C(=O)c3ccc([N+](=O)[O-])o3)CC2)cc1` [Compound 88] is lower in MIC: 0.15 mg/L (≈ 0.517 µM) for the first, < 0.1 mg/L for the second.

`CC(=O)c1ccc(N2CCN(C(=O)c3ccc([N+](=O)[O-])o3)CC2)cc1` [Compound 91] and `O=C(c1ccc([N+](=O)[O-])o1)N1CCN(Cc2cccc(OCc3ccccc3)c2)CC1` [Compound 87] cannot be ordered by MIC: < 10.1 mg/L for the first, 1.56 mg/L (≈ 3.7 µM) for the second.

same assay, conditions: Mycobacterium tuberculosis, H37RA, Table 6; M. tuberculosis H37Ra, MIC90

`O=C(NCc1ccc(N2CCOCC2)c(F)c1)c1ccc([N+](=O)[O-])o1` [Compound 102, 5-Nitro-furan-2-carboxylic acid 3-fluoro-4-morpholin-4-yl-benzylamide] and `O=C(NCc1ccc(N2CCSCC2)c(F)c1)c1ccc([N+](=O)[O-])o1` [Compound 101, 5-Nitro-furan-2-carboxylic acid 3-fluoro-4-thiomorpholin-4-yl-benzylamide] are the same in MIC: 0.2 mg/L (≈ 0.573 µM) for the first, 0.2 mg/L (≈ 0.547 µM) for the second.

Compared with `CC(C)NC(=O)N1CCN(c2ccc(CNC(=O)c3ccc([N+](=O)[O-])o3)cc2)CC1` [Compound 106, 4-(4-{[(5-Nitro-furan-2-carbonyl)-amino]-methyl}-phenyl)-piperazine-1-carboxylic acid isopropylamide], `CCOC(=O)N1CCN(c2ccc(CNC(=O)c3ccc([N+](=O)[O-])o3)cc2)CC1` [Compound 104, 4-(4-{[(5-Nitro-furan-2-carbonyl)-amino]-methyl}-phenyl)-piperazine-1-carboxylic acid ethyl ester] is 1.5-fold lower in MIC: 0.0062 mg/L (≈ 0.0149 µM) for the first, 0.004 mg/L (≈ 0.00994 µM) for the second.

`O=C(NCc1ccc(N2CCN(Cc3ccccc3)CC2)c(F)c1)c1ccc([N+](=O)[O-])o1` [Compound 99, 5-Nitro-furan-2-carboxylic acid 4-(4-benzyl-piperazin-1-yl)-3-fluoro-benzylamide] and `O=C(NCc1ccc(N2CCC(Cc3ccccc3)CC2)c(F)c1)c1ccc([N+](=O)[O-])o1` [Compound 103, 5-Nitro-furan-2-carboxylic acid 4-(4-benzyl-piperidin-1-yl)-3-fluoro-benzylamide] are the same in MIC: 0.0125 mg/L (≈ 0.0285 µM) for the first, 0.0125 mg/L (≈ 0.0286 µM) for the second.

Going from `O=C(NCc1ccc(N2CCN(CC3CC3)CC2)cc1)c1ccc([N+](=O)[O-])o1` [Compound 98, 5-Nitro-furan-2-carboxylic acid 4-(4-cyclopropylmethyl-piperazin-1-yl)-benzylamide] to `NC1CCN(c2ccc(CNC(=O)c3ccc([N+](=O)[O-])o3)cc2)C1` (stereo not shown) [Compound 95, 5-Nitro-furan-2-carboxylic acid 4-(3-amino-pyrrolidin-1-yl)-benzylamide], the MIC rises from 0.05 mg/L (≈ 0.13 µM) to 0.8 mg/L (≈ 2.42 µM) (16-fold).

Going from `O=C(NCc1ccc(N2CCNCC2)cc1)c1ccc([N+](=O)[O-])o1` [Compound 97, 5-Nitro-furan-2-carboxylic acid 4-piperazin-1-yl-benzylamide] to `CN1CCN(c2ccc(CNC(=O)c3ccc([N+](=O)[O-])o3)cc2F)CC1` [Compound 100, 5-Nitro-furan-2-carboxylic acid 3-fluoro-4-(4-methyl-piperazin-1-yl)-benzylamide], the MIC falls from 0.8 mg/L (≈ 2.42 µM) to 0.4 mg/L (≈ 1.1 µM) (2-fold).

same assay, conditions: Table 5; M. tuberculosis H37Ra, MIC90

In the case of `O=C(c1ccc([N+](=O)[O-])o1)N1CCN(c2ncccn2)CC1` [Compound 81], the MIC is reported as 0.1 mg/L (≈ 0.33 µM).
With `O=C(c1ccc([N+](=O)[O-])o1)N1CCN(c2ncccn2)CC1` [Compound 77] the MIC was 0.025 mg/L (≈ 0.0824 µM).
